± gives the expanded uncertainty stated by the source.
Conditions: Crystal

mass density (293 K, 101.33 kPa, Pycnometric method): 1536 ± 5 kg/m3
Normal melting temperature (DTA): 148.56 ± 0.5 °C
SMILES: Cc1ncc(COP(=O)(O)O)c(C=O)c1O.O [pyridoxal 5-phosphate hydrate]
